Measured values taken from patent US20200281928A1, “VITAMIN B1 IN HIGH DOSES FOR USE IN THE MEDICAL TREATMENT OF MOTOR SYMPTOMS OF SOME SPORADIC NEURODEGENERATIVE DISEASES, OF GENETIC ORIGIN, AND OF CLUSTER HEADACHE AND OF MIGRAINE HEADACHE” (priority 2017, published 2020).
Like-named read-outs stand apart in the source and are kept apart here.

How the values were obtained:
[1] = tested on: Essential Tremor (also called intention tremor); details: for improvement of TETRAS ADL Subscale / improvement of TETRAS Performance subscale / TETRAS ADL Subscale score after treatment / TETRAS Performance subscale score after treatment: two 100-mg/ml vials intramuscularly per week, two months; for TETRAS ADL Subscale score after treatment: scale 0-48; for TETRAS Performance subscale score after treatment: scale 0-64
Description: Two patients were studied affected by such pathology, a person and a person. The intention tremor, differently from tremor in Parkinson disease appears and increases with muscular activity. The diagnosis was made by neurologists expert in the motion disorders based upon the clinical, neuroradiological and electrophysiological data.
Before starting the treatment, both patients were evaluated with a validated scale called TETRAS (TRG ESSENTIAL TREMOR RATING ASSESSMENT SCALE). They were re-evaluated with the same scale after two months of treatment with two 100-mg/ml vials of thiamine (vitamin B1) intramuscularly performed on Monday and on Thursday morning with the same scale.
In turn, this scale is constituted by two sub-scales. The first one, Activities of Daily Living Subscale (ADL Subscale) measures the impact the tremor has in the activities of daily life and it has a score ranging from 0 (no impact) to 48 (maximum impact).
The second one, Performance Subscale measures the width and the extension of tremor on the body and it has a score ranging from 0 (no tremor) to 64 (tremor with wide shocks and widespread).

[2] = tested on: Dystonia 1 (DYT1); details: for Fahn-Mardsen motion scale after treatment: scale 0-120; for Fahn-Mardsen disability scale after treatment: scale 0-30
Description: The studied patients were two, a person and a person, parent and child. The disease is genetic and has a transmission of dominant type. The diagnosis was made in primary neurological centres based upon anamnestic, clinical and laboratory data.
They were evaluated with Fahn-Mardsen scale of dystonia (Fahn-Mardsen Rating Scale). This scale consists of two sub-scales: 1) motion scale 2) disability scale. The first one ranges from 0 (no motion disorder) to 120 (maximum intensity and extension of the motion dystonic disorder). The second one ranges from 0 (no disability) to 30 (maximum disability)

[3] = tested on: Huntington's Chorea; details: one patient, two vials intramuscularly 100 mg/ml per week, two months
Description: We evaluated and treated one single patient. The disease is genetic and it has dominant transmission. The diagnosis was made in primary neurological centres based upon anamnestic, clinical and laboratory data. […] The first symptoms appeared about six years ago.
The patient, 56 years […], was evaluated with Unified Huntington's Disease Rating Scale (UHDRS). The scale consists of 31 items and ranges from 0 scores (absence of choreic motions) to 124 scores (maximum intensity and extension on the body of the involuntary motions of choreic type).
The first evaluation, before treatment was performed on Jun. 7, 2016, the second one, after two months of treatment with two vials intramuscularly 100 mg/ml per week was performed on Sep. 9, 2016.

[4] = tested on: Sporadic spinocerebellar ataxia; details: for Improvement of motor symptoms: SARA, two months of therapy; for SARA scale after therapy: two vials of thiamine 100 mg/ml twice a week, two months, scale 0-40
Description: The diagnosis was made by exclusion, by excluding the genetic forms of spino cerebellar ataxia and the tumour secondary forms.
The patients were evaluated with SARA (Scale for Assessment and Rating of Ataxia), scale validated for all disorders of cerebellar type. The score of this scale ranges from 0 (absence of symptoms) to 40 (maximum deficit).
The diagnoses were made by Italian primary neurological centres based upon the anamnestic, clinical, evolutionary, neuroradiological and neurophysiological and molecular chemistry data.

[5] = tested on: Multisystemic Atrophy (MSA) Type Parkinson (Type P); details: for Improvement of motor symptoms: UPDRS portion III, two months of therapy; for UPDRS portion III after therapy: five 100 mg/ml vials intramuscularly per week plus low doses of other group b vitamins and magnesium, two months, scale 0-56
Description: We treated four patients affected by such pathology, two women and two men with five vials intramuscularly per week of vitamin B1. One vial included 100 mg/ml of thiamine. The injection was performed each morning for the first five days of the week. The dose was determined empirically based upon the disease progression rapidity.
Moreover, low doses of all other vitamins of group b, including folic acid, 150 mg of magnesium citrate and 150 mg of magnesium malate, were associated to the treatment.
The patients were evaluated with UPDRS (Unified Parkinson's Disease Rating Scale), scale validated for all Parkinson forms.
(§1) The diagnoses were made by Italian primary neurological centres based upon anamnestic, clinical, evolutionary, neuroradiological and neurophysiological data.

[6] = tested on: Cortico-Basal Degeneration; details: for Improvement of motor symptoms: UPDRS portion III, two months of therapy; for UPDRS portion III after therapy: three 100 mg/ml vials intramuscularly per week plus low doses of other group b vitamins and magnesium, two months, scale 0-56
Description: We treated two patients affected by such pathology, two men with three vials intramuscularly per week of vitamin B1. One vial included 100 mg/ml of thiamine. The injection was performed in the three odd or even midweek days. The dose was determined empirically based upon the disease progression rapidity.
Furthermore low doses of all other vitamins of the group b, including folic acid, 150 mg of magnesium citrate and 150 mg of magnesium malate, were associated to the treatment.
The patients were evaluated with UPDRS (Unified Parkinson's Disease Rating Scale), scale validated for all Parkinson forms. Herein the scores of third portion (portion III) of this scale will be shown, illustrating the motor problems found by the examiner. […] Both of them were evaluated before starting the treatment and two months after the treatment beginning.
as §1

[7] = tested on: Migraine Headache; details: for MIDAS after treatment: after 30 days, scale 0-25
Description: Migraine headache is the headache form characterized by a recurrent pain involving one only side of the head. The pulsating headache can last from four hours until three days and it is accompanied by nausea, vomiting, photophobia. The causes are poorly known. We studied two female patients starting from January 2017.
The patients were evaluated with Migraine Disability Assessment Test (MIDAS) evaluation scale before starting the treatment and every 30 days after starting the treatment, which started in January 2017. The score of this scale ranges from 0 (absence of symptoms) to 25 (maximum disability, maximum negative influence in the daily life activities).
The thiamine dose was 300 mg orally each morning.
The thiamine dose was 500 mg every morning orally.

[8] = patient P1, two months of treatment
[9] = patient P2, two months of treatment
[10] = patient P2, two months of treatment, before treatment 4

Cc1ncc(C[n+]2csc(CCO)c2C)c(N)n1 [vitamin B1, thiamine]
improvement of TETRAS ADL Subscale ([1]; patient N1): 75%
improvement of TETRAS Performance subscale ([1]; patient N1): 74.4%
TETRAS ADL Subscale score after treatment ([1]; patient N1, before treatment 16): 4 scores
TETRAS Performance subscale score after treatment ([1]; patient N1, before treatment 19.5): 5 scores
improvement of TETRAS ADL Subscale ([1]; patient N2): 65.3%
improvement of TETRAS Performance subscale ([1]; patient N2): 68.2%
TETRAS Performance subscale score after treatment ([1]; patient N2, before treatment 22): 7 scores
TETRAS ADL Subscale score after treatment ([1]; patient N2, before treatment 23): 8 scores
alteration in the common laboratory examinations ([1]; two Essential Tremor patients, long-term treatment never suspended): nor any alteration in the common laboratory examinations
side effects ([1]; two Essential Tremor patients, long-term treatment never suspended (intramuscular vials or 4 grams each day orally)): no any side effect
result with the equivalent dose orally ([1]; two Essential Tremor patients, 4 grams each day of vitamin B1 orally for some months instead of the vials): keeping the same results of the vials
improvement of disability scale [2, 8]: 35.8%
improvement of motion scale [2, 8]: 53.0%
Fahn-Mardsen motion scale after treatment ([2]; patient P1, two months of treatment (dose not given), before treatment 66): 31 scores
Fahn-Mardsen disability scale after treatment ([2]; patient P1, two months of treatment, before treatment 14): 9 scores
improvement of disability scale [2, 9]: 50.0%
improvement of motion scale [2, 9]: 50.0%
Fahn-Mardsen disability scale after treatment [2, 10]: 2 scores
Fahn-Mardsen motion scale after treatment [2, 10]: 2 scores
improvement of UHDRS [3]: 27.5%
UHDRS after treatment ([3]; before treatment 62, scale 0-124): 45 scores
Improvement of motor symptoms ([4]; patient N1 (person nine)): 33.4%
SARA scale after therapy ([4]; patient N1 (person nine), before therapy 9): 6 scores
Improvement of motor symptoms ([4]; patient N2 (person four)): 50.0%
SARA scale after therapy ([4]; patient N2 (person four), before therapy 6): 3 scores
Improvement of motor symptoms ([5]; patient N1 (person eleven)): 30.8%
UPDRS portion III after therapy ([5]; patient N1 (person eleven), before therapy 26): 18 scores
Improvement of motor symptoms ([5]; patient N2 (person ten)): 11.8%
UPDRS portion III after therapy ([5]; patient N2 (person ten), before therapy 34): 30 scores
Improvement of motor symptoms ([5]; patient N3 (person three)): 55.5%
UPDRS portion III after therapy ([5]; patient N3 (person three), before therapy 9): 5 scores
Improvement of motor symptoms ([5]; patient N4): 47.6%
UPDRS portion III after therapy ([5]; patient N4, before therapy 21): 10 scores
Improvement of motor symptoms ([6]; patient N1 (person five)): 57.6%
UPDRS portion III after therapy ([6]; patient N1 (person five), before therapy 26): 15 scores
Improvement of motor symptoms ([6]; patient N2 (person six)): 15.3%
UPDRS portion III after therapy ([6]; patient N2 (person six), before therapy 35): 31 scores
days of treatment after which the regression of the episodes was already present ([7]; migraine patients on oral thiamine, maintained by continuing the same treatment): 7 days
MIDAS after treatment ([7]; patient N1, 300 mg orally each morning, before treatment 19): 0 scores
MIDAS after treatment ([7]; patient N2 (person ten), 500 mg every morning orally, before treatment 20): 0 scores
